For one series, the system named is J774.A1. Put plainly: Antiinflammatory activity in mouse J774A1 cells assessed as reduction of LPS-induced iNOS expression after 6 to 12 hrs by Western blot analysis. Type of series: functional, cell-based.
Details: not given
(In general: Immunoblotting shows a protein as a band on a membrane.)
With `COC(=O)/C=C\[C@]1(C)[C@H]2CC[C@@]3(C)[C@H](C4=CC(O)OC4=O)OC(=O)[C@H]4O[C@]43[C@]2(C)[C@]2(O)OC(C)(C)C(=O)[C@@]21O` (some centres not stated) [HARPERFOLIDE], the Activity entry was “Dose-dependent effect”.

Tested on in the next series: not listed separately
The experiment in a line: Antiinflammatory activity in mouse J774A1 cells assessed as reduction of LPS-induced nitric oxide production treated 2 hrs before LPS addition measured after 20 hrs by using Griess reagent. The class given is functional, cell-based. As to conditions: J774.A1. (Griess reagent forms a coloured azo dye with nitrite.)
For the compound `COc1cc2oc(C)cc(=O)c2c(O)c1CC=C(C)C`, the half-maximal inhibitory concentration (IC50) (usually the concentration at which inhibition is half-maximal) worked out at 56.4 µM.

Consider `COc1cc2c(c3oc(C)cc(=O)c13)C=CC(C)(C)O2`, for which the 50% inhibitory concentration (IC50) turned out to be 66.4 µM.

With `COC(=O)c1cc(=O)c2c(O)cc3c(c2o1)C=CC(C)(C)O3`, the IC50 was 55 µM.

On to `CC(=O)c1c(O)c(CC=C(C)C)c(O)c2c1O[C@](C)(CCC=C(C)C)[C@H](OO)C2`, for which the IC50 is 31 µM.

For the compound `C[C@H]1c2ccoc2C[C@H]2[C@H]1CC[C@@H]1[C@]2(C)CCC[C@]1(C)C(=O)O` [(+)-VOUACAPENIC ACID], the IC50 came to 132 µM.

With `COc1cc(O)c2c(=O)cc(C)oc2c1CCC(C)(C)O` [HARPERAMONE], the concentration for half-maximal inhibition (IC50) is 49.6 µM.

In the case of `COC(=O)/C=C\[C@]1(C)[C@H]2CC[C@@]3(C)[C@H](C4=CC(O)OC4=O)OC(=O)[C@H]4O[C@]43[C@]2(C)[C@]2(O)OC(C)(C)C(=O)[C@@]21O` (some centres not stated) [HARPERFOLIDE], the concentration for half-maximal inhibition (IC50) came out at 6.51 µM.

Take `COC(=O)/C=C\[C@]1(C)[C@H]2CC[C@@]3(C)[C@H](c4ccoc4)OC(=O)[C@H]4O[C@]43[C@]2(C)[C@]2(O)OC(C)(C)C(=O)[C@@]21O` [HARRISONIN]: the IC50 worked out at 135 µM.

`COc1ccc2c(c1)c(CC(=O)O)c(C)n2C(=O)c1ccc(Cl)cc1` [INDOMETHACIN]: the half-maximal inhibitory concentration (IC50) was 28.4 µM.

Consider `CC1(C)OC(=O)C=C[C@]2(C)[C@H]3CC[C@@]4(C)[C@H](c5ccoc5)OC(=O)[C@H]5O[C@]54[C@]3(C)C(=O)C[C@@H]12` [OBACUNONE], for which the IC50 is 83.6 µM.

Tested on in a further series: not listed separately
Put plainly: Cytotoxicity against mouse J774A1 cells assessed as cell viability at 2.5 to 20 uM after 20 hrs by MTT assay. The class given is cell-based. The following applies: j774.a1, 20 h.
As to `COC(=O)/C=C\[C@]1(C)[C@H]2CC[C@@]3(C)[C@H](C4=CC(O)OC4=O)OC(=O)[C@H]4O[C@]43[C@]2(C)[C@]2(O)OC(C)(C)C(=O)[C@@]21O` (some centres not stated) [HARPERFOLIDE], the Activity result is listed as “Non-toxic”.

The record behind these values is ChEMBL document CHEMBL2396624, “Rearranged limonoids and chromones from Harrisonia perforata and their anti-inflammatory activity” (Bioorg Med Chem Lett, 2013).
